From patent US12280090B2, “Antimicrobial peptides” (priority 2018, dated 2025)
Values after ≈ are worked out from the molar mass of the structure shown. Where two headings read alike, the source gives them in different places. Ends that are not written are not given here. Peptide text beside a SMILES is read from it.

Columns and labels:
Format in all cases: cell-based
[1] = system: Escherichia coli: ATCC 9723H
Experimental: (§1) Microtiter broth dilution assays. HP2, HP3, and HP5 peptides are comprised of novel sequences that have not yet been described in the AMP literature. A common method for establishing antimicrobial activity of peptides is to perform microtiter broth assays. Microtiter broth dilution methods were implemented for determination of the minimum inhibitory concentration (MIC) and minimum bactericidal concentration (MBC). HP3 and HP5 were tested in addition to Ranatuerin-1/HP4 peptide as a positive control. HP2 could not be tested because multiple peptide synthesis attempts failed. The human cathelicidin, LL-37^30 was used as an additional positive control, and an unrelated similarly sized cationic peptide from the T. pallidum protein Tp0751 was used as a negative control. The potential AMPs were tested against bacteria representative of all three types of known cell envelope (Gram-positive, negative, and the complex and unique mycobacterial cell wall/envelope), given that a major mechanism used by AMPs is cell wall/membrane targeting.
(§2) Microtiter broth dilution assays. To test for antimicrobial activity, HP3, HP4/Ranatuerin-1, and HP5, peptides were synthesized by GenScript (Piscataway, New Jersey, USA). HP2 was not tested because the service provider was unable to synthesize this peptide despite multiple attempts. An unrelated, similarly-sized peptide from the Treponema pallidum protein Tp0751^55 was used as a negative control and the human cathelicidin, LL-37^30, was included as a positive control. Peptides were dissolved in filter-sterilized ultrapure water and tested for sterility by plating on non-selective agar plates followed by a 48 h incubation at 37° C. Two-fold serial dilutions of each peptide were prepared to obtain a series corresponding to ten times the required testing concentrations (2560, 1280, 640, 320, 160, 80, 40, 20, 10, and 5 μg/mL)^29.
(§3) Microtiter broth dilution methods were implemented for determination of the minimum inhibitory concentration (MIC) and minimum bactericidal concentration (MBC) of the four putative AMPs and the negative control peptide using procedures adapted from the R.E.W. Hancock Laboratory for cationic AMPs^29 and the CLSI methods for dilution antimicrobial susceptibility tests^56.
(§4) To assess antimicrobial activity across a diverse range of bacterial species, colonies were cultured overnight on Mueller Hinton agar plates (MHA; +5% sheep blood for S. pyogenes)^56 from frozen glycerol stock. Bacteria tested include Gram-negative rods (Escherichia coli: ATCC 9723H; Pseudomonas aeruginosa: ATCC 10148), Gram-positive cocci (Staphylococcus aureus: ATCC 6538P; Streptococcus pyogenes: unknown strain, hospital isolate), and Mycobacterium smegmatis (MC^2155; classified as neither Gram-positive nor Gram-negative). Bacterial suspensions were prepared by placing 3-5 morphologically similar colonies from the grown plate into sterile glass culture tubes containing 2 mL of Mueller Hinton Broth (MHB; +5% lysed horse blood for S. pyogenes) 56. Microbial inoculums from bacterial suspensions were prepared through a spectrophotometric adjustment of turbidity to 0.08-0.1 at 600 nm to achieve a turbidity equivalent to that of a 0.5 McFarland standard (1-2×10^8 CFU/mL)^29. The standardized bacterial inoculums were then diluted in MHB to obtain final cell densities of approximately […].
(§5) Ninety-six-well microtiter plates (Fisher Cat. No. CS003790; Nepean, Ontario, Canada) were prepared with 100 μL of E. coli, P. aeruginosa, S. aureus, S. pyogenes, or M. smegmatis bacterial suspension (5×10^5 CFU/mL) dispensed into each well of columns 1 through 11. Eleven microliters of the 10×AMP dilution series for all four peptides were added to each well from column 1 (2560 μg/mL) to column 10 (5 μg/mL) in all plates. Column 11 functioned as a positive control for bacterial growth in the absence of AMPs. Column 12 in each plate contained 100 μL of MHB as a sterility control (+5% lysed horse blood for S. pyogenes)^56. […]

[2] = system: Mycobacterium smegmatis (MC^2155)
Experimental: as §1, §2, §3, §4, §5

[3] = system: Pseudomonas aeruginosa: ATCC 10148
Experimental: as §1, §2, §3, §4, §5

[4] = system: Staphylococcus aureus: ATCC 6538P
Experimental: as §1, §2, §3, §4, §5

[5] = system: Streptococcus pyogenes: unknown strain, hospital isolate
Experimental: as §1, §2, §3, §4, §5

[6] = system: Escherichia coli—Carbapenemase-producing organism; New-Dehli Metallobetalactamase
Experimental: Independent experiments were conducted with four strains of E. coli, including ATCC E. coli (Escherichia coli—ATCC 25922 “wild type”); ESBL E. coli (Escherichia coli—Extended spectrum beta-lactamase); CPO E. coli (KPC) (Escherichia coli—Carbapenemase-producing organism; Klebsiella pneumoniae carbapenemase); and CPO E. coli (NDM) (Escherichia coli—Carbapenemase-producing organism; New-Dehli Metallobetalactamase).
The ATCC (American Type Culture Collection) strains received from Cedarlane. Multi drug resistant (MDR) strains, as clinical isolates, were received from the laboratory of Dr. Linda Hoang.
Putative antimicrobial peptides were synthesized by GeneScript. A-list antimicrobial peptides re-synthesized by GeneScript. P2_CCH, P5_CCH, and P5_CCH_A19K were each synthesized under two conditions: standard synthesis using TFA, and the other with TFA-removal using acetate as a counter-ion. A MIC method, adapted for use with cationic antimicrobial peptides, was used to evaluate MIC antimicrobial activity (Hancock 1999).
The following data are presented to show the activity (MIC/MBC in μg/mL) of certain antimicrobial peptides described herein relative to a modified/synthetic version having a specified substitution. While data presented in tables above may be presented again, or may be represented in data provided in the tables below, such duplication is believed to assist the reader in readily noting comparisons. Different Run Numbers noted in the following tables denotes experiments conducted on different days, with each run reflecting multiple n values.

[7] = unknown strain, hospital isolate

Compound | MBC ([1]; ATCC 9723) | MIC ([1]; ATCC 9723) | MBC ([2]; Mycobacterium (MC^2155)) | MIC ([2]; Mycobacterium (MC^2155)) | MBC ([3]; ATCC 10148) | MIC ([3]; ATCC 10148) | MBC ([4]; ATCC 6538) | MIC ([4]; ATCC 6538) | MBC [5, 7] | MIC [5, 7] | MIC [6] | MBC ([1]; E. coli (Table 5)) | MBC ([2]; M. smegmatis (Table 5)) | MBC ([3]; P. aeruginosa (Table 5)) | MBC ([4]; S. aureus (Table 5)) | MBC ([5]; S. pyogenes (Table 5))
CC[C@H](C)[C@H](NC(=O)CNC(=O)[C@@H](NC(=O)[C@@H](NC(=O)[C@H](CCCCN)NC(=O)CNC(=O)[C@@H](NC(=O)[C@H](CC(=O)O)NC(=O)[C@H](CCCCN)NC(=O)[C@@H](NC(=O)[C@@H](NC(=O)[C@H](CC(=O)O)NC(=O)[C@H](CC(C)C)NC(=O)[C@H](CC(C)C)NC(=O)CN)[C@@H](C)CC)[C@@H](C)CC)[C@@H](C)O)[C@@H](C)O)[C@@H](C)O)C(=O)N[C@@H](CC(C)C)C(=O)N[C@@H](CCSC)C(=O)N[C@@H](CC(=O)O)C(=O)N[C@H](C(=O)N[C@@H](CC(C)C)C(=O)N[C@@H](CCCCN)C(=O)N[C@@H](CS)C(=O)N[C@@H](CCC(N)=O)C(=O)N[C@@H](CCSC)C(=O)N[C@H](C(=O)NCC(=O)N[C@@H](CCCNC(=N)N)C(=O)N[C@@H](CS)C(=O)N1CCC[C@H]1C(=O)N1CCC[C@H]1C(=O)N[C@@H](CO)C(=O)N[C@@H](CO)C(=O)O)[C@@H](C)O)[C@@H](C)O [Peptide P3_CCH] (H-GLLDIIKDTGKTTGILMDTLKCQMTGRCPPSS-OH; N-terminus and C-terminus assumed) | >256 µg/mL | >256 µg/mL | >256 µg/mL | >256 µg/mL | >256 µg/mL | >256 µg/mL | >256 µg/mL | >256 µg/mL | >256 µg/mL | >256 µg/mL |  |  |  |  |  | 
CC[C@H](C)[C@H](NC(=O)[C@H](C)NC(=O)[C@@H]1CCCN1C(=O)[C@@H](N)Cc1ccccc1)C(=O)N[C@H](C(=O)N[C@@H](CS)C(=O)N[C@@H](CCCCN)C(=O)N[C@H](C(=O)N[C@@H](CO)C(=O)N[C@@H](CCCCN)C(=O)N[C@@H](CC(N)=O)C(=O)N[C@@H](CS)C(=O)O)C(C)C)[C@@H](C)CC [Peptide P8_CCH, FPAIICKVSKNC] (H-FPAIICKVSKNC-OH; N-terminus and C-terminus assumed) | >256 µg/mL | >256 µg/mL |  | 128 µg/mL (≈ 96.8 µM) | >256 µg/mL | >256 µg/mL | >256 µg/mL | >256 µg/mL | >256 µg/mL | >256 µg/mL |  |  |  |  |  | 
CC[C@H](C)[C@H](N)C(=O)N[C@@H](CCC(N)=O)C(=O)N[C@@H](CCCNC(=N)N)C(=O)N[C@@H](CC(C)C)C(=O)N1CCC[C@H]1C(=O)N[C@H](C(=O)N[C@H](C(=O)N[C@H](C(=O)N[C@H](C(=O)N[C@@H](CC(C)C)C(=O)N1CCC[C@H]1C(=O)N[C@@H](CO)C(=O)N[C@@H](CC(C)C)C(=O)N[C@@H](Cc1ccc(O)cc1)C(=O)N[C@@H](CS)C(=O)N[C@H](C(=O)N[C@H](C(=O)N[C@@H](CS)C(=O)N[C@@H](CCCNC(=N)N)C(=O)N[C@H](C(=O)N[C@@H](CS)C(=O)O)[C@@H](C)O)[C@@H](C)CC)C(C)C)[C@@H](C)CC)C(C)C)[C@@H](C)CC)C(C)C [Peptide P14_CCH] (H-IQRLPVIVILPSLYCVICRTC-OH; N-terminus and C-terminus assumed) | >256 µg/mL | >256 µg/mL | >256 µg/mL | >256 µg/mL | >256 µg/mL | >256 µg/mL | >256 µg/mL | >256 µg/mL | >256 µg/mL | >256 µg/mL |  |  |  |  |  | 
ATAWRIPPPGMQPIIPIRIRPLCGKQ [Peptide P7_CCH] | >256 µg/mL | >256 µg/mL | >256 µg/mL | 32 µg/mL | >256 µg/mL | >256 µg/mL | >256 µg/mL | >256 µg/mL | >256 µg/mL | >256 µg/mL | 256 µg/mL |  |  |  |  | 
FLTKPGMTFGKLLGK [Peptide P9_CCH] | >256 µg/mL | >256 µg/mL | >256 µg/mL | >256 µg/mL | >256 µg/mL | >256 µg/mL | >256 µg/mL | >256 µg/mL | >256 µg/mL | >256 µg/mL |  |  |  |  |  | 
FYFPVSRKFGGK [Peptide P1_CCH, FYFPVSRKFGGK] |  | >256 µg/mL |  |  |  | >256 µg/mL |  | >256 µg/mL |  | >256 µg/mL |  | > 256 µg/mL | > 256 µg/mL | > 256 µg/mL | > 256 µg/mL | > 256 µg/mL
IAGQVAAAKQKHI [Peptide P12_CCH, IAGQVAAAKQKHI] | >256 µg/mL | >256 µg/mL | >256 µg/mL | >256 µg/mL | >256 µg/mL | >256 µg/mL | >256 µg/mL | >256 µg/mL | >256 µg/mL | >256 µg/mL |  |  |  |  |  | 
LRCPTPHYNFENGIGNHLMWNIIWLNAQQMSYKNK [Peptide P15_CCH] | >256 µg/mL | >256 µg/mL | >256 µg/mL | >256 µg/mL | >256 µg/mL | >256 µg/mL | >256 µg/mL | >256 µg/mL | >256 µg/mL | >256 µg/mL |  |  |  |  |  | 
SNRDFFKVNIFRLCG [Peptide P10_CCH, SNRDFFKVNIFRLCG] | >256 µg/mL | >256 µg/mL | >256 µg/mL | >256 µg/mL | >256 µg/mL | >256 µg/mL | >256 µg/mL | >256 µg/mL | >256 µg/mL | >256 µg/mL |  |  |  |  |  | 
SNRDFFMVNIFGLCGPFGIMERKRR [Peptide P16_CCH] |  | >256 µg/mL |  | >256 µg/mL |  | >256 µg/mL |  | >256 µg/mL |  | >256 µg/mL |  |  |  |  |  | 
